From patent US5962502A, “Polyamidic acid derivatives with antigastrin activity, a method for their preparation, and their pharmaceutical use” (priority 1993, dated 1999)
“And” between values parts separate entries of the source, which are not always exact repeats. Identical values can stand only once.

Experiments:
[1] = biological target: T1, gastrin receptors or type-B cholecystokinin (CCK-B) receptors (Oryctolagus cuniculus, UniProt P46627); assay: Inhibition of the gastrin-induced increase of cytosolic calcium in rabbit gastric mucous-membrane cells (Fura 2); type: cell-based; details: for Ratio IC50 Binding cortex / IC50 (gastric mucous cells): binding values taken from Table 3; for IC50, inhibition of the increase of cytosolic calcium: rabbit gastric mucous cells enriched in parietal cells, gastrin 5×10^-8
T1 construct: Rabbit gastric mucous-membrane cells were prepared by conventional techniques; endogenous in cells; host or cells: freshly isolated rabbit gastric mucosal cells, enriched by elutriation to about 70% parietal cells
T1 sequence (P46627 1-452): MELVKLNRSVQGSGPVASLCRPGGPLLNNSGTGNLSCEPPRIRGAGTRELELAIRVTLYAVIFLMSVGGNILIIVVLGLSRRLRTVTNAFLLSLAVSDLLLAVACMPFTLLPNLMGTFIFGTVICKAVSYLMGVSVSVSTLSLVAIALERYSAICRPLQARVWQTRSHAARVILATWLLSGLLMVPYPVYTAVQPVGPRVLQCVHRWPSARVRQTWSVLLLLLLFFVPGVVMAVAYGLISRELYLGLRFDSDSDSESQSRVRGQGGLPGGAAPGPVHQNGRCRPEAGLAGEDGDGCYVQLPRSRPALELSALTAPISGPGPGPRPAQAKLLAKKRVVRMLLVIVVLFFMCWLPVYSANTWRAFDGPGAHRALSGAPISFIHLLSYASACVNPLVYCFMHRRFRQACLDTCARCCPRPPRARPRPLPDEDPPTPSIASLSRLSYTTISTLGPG
Source text: The parietal cells of the gastric mucous membrane are responsible for the secretion of HCl. They have specific membrane receptors which can be activated by gastrin and which have been defined as gastrin receptors or type-B cholecystokinin (CCK-B) receptors. Since it has been observed that the activation of the CCK-B receptors by gastrin leads to an increase in the cytosolic levels of calcium ions, a technique involving the measurement of the increase in intracellular calcium induced by gastrin in the presence and in the absence of the compounds of the invention was used as an index of the antigastrin activity of the compounds. Rabbit gastric mucous-membrane cells were prepared by conventional techniques with the use of collagenase and pronase as digestive enzymes. The cellular preparation obtained by the enzymatic digestion was composed of parietal cells, zymogen cells and mucous-membrane cells. […] The cells were then washed and resuspended in a saline solution buffered with HEPES containing, in mM: […] Each measurement was carried out on cells in suspension (0.8×10^6 /ml) at a thermostatically-controlled temperature of 37° C. and with constant magnetic stirring. The fluorescence was recorded with the use of a spectrofluorometer. The operative wavelengths were 340/380 nm for excitation and 505 nm for emission. […] Biol. Chem. 260 (1985), 3440]. […] The results thus obtained for some compounds of the invention are given in Table 4, which also gives an index derived from the ratio between the peripheral antigastrin activity just described and the displacement activity found in the test on binding to the guinea-pig cortex receptors described above.

[2] = tested on: acid secretion induced by pentagastrin; assay: Acid secretion induced by pentagastrin in the anaesthetized rat; type: in vivo; details: for ED50: iv, 1 h, I.V. bolus, pentagastrin 30 mcg/kg/h, read-out: Activity (ID50), inhibition of the acid secretion induced by pentagastrin
Procedure: The activity of the compounds of the invention against gastric secretion performed by means of a mechanism with an antigastrin effect, was examined in vivo in anaesthetized rats with the use of male animals weighing about 200 g. Gastric secretion was stimulated with pentagastrin and Lai's method [Gut 5, (1964), 327-341 ] was used, with slight modification.
After tracheotomy, the oesophagus and duodenum were cannulated. A tepid solution (37° C.) of 0.25 mM NaOH was perfused and was passed through the stomach by means of a peristaltic pump at a constant flow-rate of 1 ml/minute. After stabilization for 20 minutes, the stimulant, dissolved in a physiological solution, was perfused for 120 minutes at a dose of 30 mcg/kg/h, in a volume of 0.95 ml/hour. After perfusion for 60 minutes (the basal stimulation), the product under test was administered intravenously (I.V.) as a bolus and perfusion of the stimulant was continued for a further 60 minutes. The acid secretion was recorded continuously as a function of time.
The activity of the product was evaluated as the percentage reduction of secreted acidity after the administration of the product, in comparison with the basal acidity measured during the first 60 minutes of collection in the presence of pentagastrin alone.
The antagonistic compounds tested were administered in various doses so that an ID50, that is, the dose (in mg/kg I.V.) which could inhibit the effect of pentagastrin by 50%, could be calculated.

[3] = biological target: T2, central CCK-B receptor (Cavia porcellus, UniProt H0VZC5); assay: Inhibition of the binding of [3-H][N-methyl-N-leucine]CCK-8 to guinea-pig cortical membranes; details: guinea-pig cortical membranes; for IC50: 150 minutes at 25° C.
T2 construct: Cerebral cortices of male white guinea-pigs were thus used; from tissue; host or cells: cerebral cortex membranes of male white guinea-pigs
T2 sequence (H0VZC5 1-426): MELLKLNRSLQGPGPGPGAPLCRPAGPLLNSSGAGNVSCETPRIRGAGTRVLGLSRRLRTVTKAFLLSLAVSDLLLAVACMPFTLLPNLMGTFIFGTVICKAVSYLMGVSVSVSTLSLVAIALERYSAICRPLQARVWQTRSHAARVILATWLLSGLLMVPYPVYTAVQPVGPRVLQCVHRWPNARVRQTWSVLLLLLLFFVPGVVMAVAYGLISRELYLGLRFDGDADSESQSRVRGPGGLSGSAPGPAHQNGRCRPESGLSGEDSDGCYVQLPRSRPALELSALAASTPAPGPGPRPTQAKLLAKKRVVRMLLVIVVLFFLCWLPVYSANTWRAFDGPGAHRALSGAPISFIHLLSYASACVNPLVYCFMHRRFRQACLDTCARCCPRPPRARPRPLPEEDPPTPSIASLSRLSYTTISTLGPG
Procedure: The ability of the compounds of the invention to interact with the central CCK-B receptor was evaluated with the use of non-sulphated [3-H] […] 225 (3) (1990), 1278-1286].
Cerebral cortices of male white guinea-pigs were thus used, according to the method mentioned above, so as to obtain a membrane content corresponding to about 300 mcg of proteins/ml. The membranes were incubated together with the radioactive tracer and the compounds under test for 150 minutes at 25° C. After the supernatant had been discarded, the radioactivity associated with the pellet was determined with a liquid scintillator. The specific binding was determined as the difference between the binding in the absence and in the presence of 5.10^-6 M CCK-8.

[4] = biological target: T3, CCK-A (Cavia porcellus, UniProt Q63931); assay: Anti-CCK-A activity on guinea-pig gall bladder stimulated in vitro by CCK-8
T3 construct: A longitudinal strip of guinea-pig gall-bladder was put in a bath for isolated organs; from tissue; host or cells: guinea-pig gall bladder longitudinal strip
T3 sequence (Q63931 1-430): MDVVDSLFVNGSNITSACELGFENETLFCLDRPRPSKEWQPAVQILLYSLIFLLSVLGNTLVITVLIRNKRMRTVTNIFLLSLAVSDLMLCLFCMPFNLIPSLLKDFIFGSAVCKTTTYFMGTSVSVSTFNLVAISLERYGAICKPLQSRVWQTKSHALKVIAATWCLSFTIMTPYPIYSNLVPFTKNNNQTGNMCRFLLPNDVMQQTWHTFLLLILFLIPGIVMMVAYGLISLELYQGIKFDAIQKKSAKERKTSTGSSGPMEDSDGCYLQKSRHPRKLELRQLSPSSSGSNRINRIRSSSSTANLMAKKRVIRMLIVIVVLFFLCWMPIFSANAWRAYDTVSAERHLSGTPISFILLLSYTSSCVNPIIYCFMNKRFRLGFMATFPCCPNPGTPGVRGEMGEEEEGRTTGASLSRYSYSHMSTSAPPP
Procedure: The experimental model used was guinea-pig gall bladder stimulated in vitro by CCK-8, with the use of lorglumide as the reference standard. A longitudinal strip of guinea-pig gall-bladder was put in a bath for isolated organs in the presence of Krebs buffer at a temperature of 32° C., with continuous oxygenation with an oxygen-CO2 mixture (95-[…]). The isometric contractions were detected by means of a force transducer and recorded.

Compound | Ratio IC50 Binding cortex / IC50 (gastric mucous cells) [1] | IC50, inhibition of the increase of cytosolic calcium [1] [nM] | ED50 [2] | antigastrin activity relative to the diastereoisomer at the carbon atom (**) ([2]; pentagastrin-induced acid secretion) | IC50 [3] [nM] | inhibition of the binding of [N-methyl-N-leucine]CCK-8, result in words [3] | CCK-B-antagonistic activity IC50 (II) ([1]; data taken from Table 4 (rabbit gastric mucous cells), reprinted in Table 6) [nM] | Ratio I/II (CCK-A IC50 / CCK-B IC50) ([4]; gall bladder IC50 over gastric mucous cells IC50) | IC50 ([4]; guinea-pig gall bladder in vitro, CCK-8 10 ng/ml, read-out: CCK-A-antagonistic activity IC50 (I)) [nM]
O=C(O)C[C@H](Cc1ccccc1)NC(=O)CC[C@@H](NC(=O)c1cc(Cl)cc(Cl)c1)C(=O)N1CCC2(CCCC2)CC1 [Compound 14] | 17.0 | 20 | 9.7 mg/kg and 16.1 µmol/kg | about 1.5 times | 340 |  |  |  | 
CN(C(=O)CC[C@@H](NC(=O)c1cc(Cl)cc(Cl)c1)C(=O)N1CCC2(CCCC2)CC1)[C@H](Cc1ccccc1)C(=O)O [Compound 12] | 1.7 | 60 | 13.6 mg/kg and 24.2 µmol/kg |  | 100 | potent inhibitors |  |  | 
O=C(O)CC[C@@H](NC(=O)c1cc(Cl)cc(Cl)c1)C(=O)N1CCC2(CCCC2)CC1 [CR 2194, (R)-5-(8-azaspiro[4.5]decan-8-yl)-4-(3,5-dichloro-benzoylamino)-5-oxopentanoic acid, reference compound] | 6.3 | 380 | 11 mg/kg and 24.9 µmol/kg |  |  |  | 380 | 35.5 | 13500
